Assay results: patent US4898861A, “Method for inhibiting the proliferation of tumor cells” (Hoffmann-La Roche Inc., priority 1988, dated 1990)
Where two headings read alike, the source gives them in different places.

Experiments:
[1] = target: T1, peripheral binding site on thymoma cells (Mus musculus, UniProt P50637); test: Binding of tritiated 7-chloro-5-(4-chlorophenyl)-1,3-dihydro-1-methyl-2H-1,4-benzodiazepin-2-one to thymoma cells (saturation, association, dissociation)
T1 construct: host or cells: AKR mouse thymoma line BW 5147.6.1.4.Oua^r.1; (washed cells in BGS buffer)
T1 sequence (P50637 whole entry): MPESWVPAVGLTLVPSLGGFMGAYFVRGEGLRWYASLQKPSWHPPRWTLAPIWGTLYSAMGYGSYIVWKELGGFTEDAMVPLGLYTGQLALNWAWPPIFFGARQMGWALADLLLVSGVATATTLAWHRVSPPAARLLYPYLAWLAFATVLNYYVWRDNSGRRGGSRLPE
Protocol: Thymoma cells, AKR mouse thymoma line, BW 5147.6.1.4.Oua^r.1.(Cell Distribution Center, Salk Institute, San Diego, Calif.), were grown in Iscove's Modified Dulbecco's Medium (IMDM) containing 5 percent fetal calf serum, collected by centrifugation at 100×g and washed in Balanced Glucose Salt (BGS) buffer, the composition of which is: KCl, 5.0 mM; NaCl, 120.0 mM; Na2 HPO4, 5.0 mM; Tris, 5.0 mM; CaCl2, 0.6 mM; MgSO4, 1.0 mM and glucose, 5.5 mM with a final pH of 7.4. Incubation and binding of tritiated 7-chloro-5-(4-chlorophenyl)-1,3-dihydro-1-methyl-2H-1,4-benzodiazepin-2-one to thymoma cells was carried out in BGS buffer at 0° C. for 40 minutes with the indicated concentrations of labeled ligand. To assay the binding, the rapid filtration method was utilized as outlined in the article of Taniguchi et al., Life Science, 27, 171-178 (1980) and 10 μM of unlabeled diazepam was used as the competitive inhibitor of binding to determine the nonspecific binding. A Saturation and Scratchard plot of the binding data using least square fit to define the regression line (r=0.97) was utilized (FIG. 1 and Insert).

[2] = test system: DS 19 Friend erythroleukemia cell line (FEL); test: Induction of differentiation of FEL cells (hemoglobin synthesis, benzidine staining); format: cell-based, mouse; conditions: for EC50 / EC20 / EC10: Mus musculus, 120 h, 5 days; for EC50: read-out: ED50 (concentration required to induce 50% of the FEL cells); for EC20: read-out: ED20 (concentration required to induce 20% of the FEL cells); for EC10: read-out: ED10 (concentration required to induce 10% of the FEL cells)
Protocol: A DS 19 Friend erythroleukemia cell line (FEL) was utilized as the model for studying the effects of various benzodiazepines on cellular differentiation. The Friend lines were derived from mouse (DBA/2) spleen cells infected by the Friend virus complex. The FEL cells are a widely used model system for studying differentiation. […] The protocol utilized consisted of the benzidine staining method. Cells were seeded at 1×10^4 ml and incubated with inducers in Coster Culture Clusters ([…]) for 5 days. On the 5th day, two hundred (200) μl aliquots of cells were mixed with 100 μl of 0.2% benzidine dihydrochloride in 0.5N acetic acid with 1% of 30% H2 O2. Cells that stained blue were scored in a hemacytometer as a % of total cell number.
(§1) Of twenty five (25) of the benzodiazepines tested it was observed that sixteen induced differentiation (weakly to strongly active) in a concentration-dependent manner. The concentration of each compound required to induce 50%, 20% or 10% of the FEL cells along with the half-maximal concentrations for each compound required to inhibit 50% of the binding of 7-chloro-5-(4-chlorophenyl)-1,3-dihydro-1-methyl-2H-1,4-benzodiazepine-2-one to the FEL cells (IC50) is listed in the following table: […]

[3] = target: T2, peripheral-type benzodiazepine sites on FEL cells (Mus musculus, UniProt P50637); test: Inhibition of binding of 7-chloro-5-(4-chlorophenyl)-1,3-dihydro-1-methyl-2H-1,4-benzodiazepine-2-one to FEL cells
T2 construct: endogenous in cells; host or cells: DS 19 Friend erythroleukemia cell line (FEL)
T2 sequence (P50637 whole entry): as above
From the text: as §1

Swiss 3T3 cells = conditions: Clarke and Ryan, Nature 287, 160-161 (1980), read-out: ED50 (inhibition of proliferation); cited from earlier work
[4] = target: T1, peripheral binding site on thymoma cells; test: Inhibition of tritiated diazepam binding to thymoma cells
[5] = FEL cells, compounds 1-12, read-out: IC50 (inhibition of binding to FEL cells)
[6] = stereoisomers, equivalent IC50's, read-out: IC50
[7] = FEL cells, compounds 13-16, in μM, read-out: IC50 (inhibition of binding to FEL cells)

Row | Compound | EC50 [2] [µM] | IC50 [3, 5] [µM] | EC20 [2] [µM] | also measured
1 | CN1C(=O)CN=C(c2ccc(Cl)cc2)c2cc(Cl)ccc21 [7-chloro-5-(4-chlorophenyl)-1,3-dihydro-1-methyl-2H-1,4-benzodiazepin-2-one] | – | – | – | Kd [1]: 4.4 ± 1.1 nM; time of incubation to reach binding plateau ([1]; 0° C.): 30 min; maximum amount of ligand bound (Bmax) ([1]; saturation plot, BGS buffer, 0° C., 40 minutes, mean±s.e., n=5): 477±98 fmoles per 10^6 cells
2 | C[C@@H]1N=C(c2ccccc2F)c2cc([N+](=O)[O-])ccc2N(C)C1=O [Compound 1, (+)-5-(2-fluorophenyl)-1,3-dihydro-1,3-dimethyl-7-nitro-2H--1,4-benzodiazepin-2-one] | 9 | 1.1 | – | induction of differentiation (in words) [2]: most potent inducer tested; IC50 [3, 6]: ~1 µM
3 | CN1C(=O)CN=C(c2ccc(O)cc2)c2cc(Cl)ccc21 [Compound 2, 7-chloro-1,3-dihydro-5-(4-hydroxyphenyl)-1-methyl-2H--1,4-benzodiazepin-2-one] | 20 | 0.1 | – | –
4 | COc1ccc(C2=NCC(=O)N(C)c3ccc(Cl)cc32)cc1 [Compound 3, 7-chloro-5-(4-methoxyphenyl)-1-methyl-3H--1,4-benzodiazepin-2-one] | 33 | 0.015 | – | –
5 | CN1C(=O)CN=C(c2ccccc2)c2cc(Cl)ccc21 [Compound 4, diazepam, reference compound] | 55 | – | – | IC50 ([3]; IC50 (inhibition of binding to FEL cells), FEL cells, compounds 1-12): 0.079 µM; IC50 (Swiss 3T3 cells): ~30 µM
6 | CN1C(=O)C(O)N=C(c2ccccc2)c2cc(Cl)ccc21 (stereo not drawn) [Compound 5, 7-chloro-1,3-dihydro-3-hydroxy-1-methyl-5-phenyl-2H--1,4-benzodiazepin-2-one] | 80 | 0.236 | – | –
7 | CN1C(=O)CN=C(c2ccccc2)c2ccccc21 [Compound 6, 1,3-dihydro-1-methyl-5-phenyl-2H--1,4-benzodiazepin-2-one] | 80 | 0.704 | – | –
8 | CN1C(=O)CN=C(c2ccc(Cl)cc2)c2cc(F)ccc21 [Compound 7, 5-(4-chlorophenyl)-7-fluoro-1-methyl-3H--1,4-benzodiazepin-2(1H)--one] | – | 0.013 | 34 | –
9 | CN1C(=O)CN=C(c2ccc(Cl)cc2)c2ccccc21 [Compound 8, 5-(4-chlorophenyl)-1-methyl-3H--1,4-benzodiazepin-2(1H)--one] | – | 0.054 | 30 | –
10 | C[C@H]1N=C(c2ccccc2F)c2cc([N+](=O)[O-])ccc2N(C)C1=O [Compound 9, (-)-5-(2-fluorophenyl)-1,3-dihydro-1,3-dimethyl-7-nitro-2H--1,4-benzodiazepin-2-one] | – | 1.04 | 86 | induction of differentiation (in words) [2]: moderately active; IC50 [3, 6]: ~1 µM
11 | CN1C(=O)CN=C(c2ccc(Cl)cc2)c2cc(Cl)ccc21 [Compound 10, 7-chloro-5-(4-chlorophenyl)-1,3-dihydro-1-methyl-2H--1,4-benzodiazepin-2-one] | – | 0.006 | 28 | inhibition of tritiated diazepam binding ([4]; 200 nM unlabeled compound): completely inhibit the binding of tritiated diazepam
12 | CN1C(=O)C(O)N=C(c2ccc(Cl)cc2)c2cc(Cl)ccc21 (stereo not drawn) [Compound 11, 7-chloro-5-(4-chlorophenyl)-3-hydroxy-1,3-dihydro-1-methyl-2H--1,4-benzodiazepin-2-one] | – | 0.02 | 45 | –
13 | CN1C(=O)CN=C(c2ccc(F)cc2)c2ccccc21 [Compound 12, 1-methyl-5-(4-fluorophenyl)-3H--1,4-benzodiazepin-2(1H)--one] | – | 0.327 | 100 | –
14 | CN1C(=O)CN=C(c2ccccc2F)c2cc([N+](=O)[O-])ccc21 [Compound 13, 5-(2-fluorophenyl)-1,3-dihydro-1-methyl-7-nitro-2H--1,4-benzodiazepin-2-one] | – | – | – | EC10 [2]: 32 µM; IC50 [3, 7]: 0.08 µM
15 | CN1C(=O)CN=C(c2ccc(Cl)cc2)c2cc([N+](=O)[O-])ccc21 [Compound 14, 5-(4-chlorophenyl)-1-methyl-7-nitro-3H--1,4-benzodiazepin-2(1H)--one] | – | – | – | EC10 [2]: 60 µM; IC50 [3, 7]: 0.034 µM
16 | CN1C(=O)CN=C(c2ccccc2Cl)c2ccccc21 [Compound 15, 5-(2-chlorophenyl)-1-methyl-3H--1,4-benzodiazepin-2(1H)--one] | – | – | – | EC10 [2]: 60 µM; IC50 [3, 7]: 0.175 µM
17 | CN1C(=O)CN=C(c2ccccc2Cl)c2cc(Cl)ccc21 [Compound 16, 7-chloro-5-(2-chlorophenyl)-1,3-dihydro-1-methyl-2H--1,4-benzodiazepin-2-one] | – | – | – | EC10 [2]: 60 µM; IC50 [3, 7]: 0.011 µM
18 | O=C1CN=C(c2ccccc2Cl)c2cc([N+](=O)[O-])ccc2N1 [clonazepam, reference compound] | – | – | – | inhibition of tritiated diazepam binding ([4]; 10 μM final concentration): did not inhibit diazepam binding
